According to patent US20080008660A1, “Antimicrobially active compounds for treating bad breath” (Symrise GmbH & Co. KG, priority 2006, published 2008):
In brackets after ≈: the same amount, converted by molar mass.

How the values were obtained:
Assay type in all cases: cell-based
fresh morning saliva = test: In-vitro test for reducing bad breath (liquid medium inoculated with fresh morning saliva, smelt by a test panel); conditions: for formation of bad breath / smell after incubation: 0.1%
Procedure: This test is based on the work of Goldberg and Rosenberg (Production of Oral Malodor in an in vitro System, S. Goldberg and M. Rosenberg, pp. 143-150, in: Bad Breath—A multidisciplinary Approach, Eds: D. van Steenberghe, M. Rosenberg, Leuven University Press, 1996) and was adapted for the purposes of better reproducibility.
A sterile liquid medium that is inoculated with fresh morning saliva is incubated for a few days at 37° C. and then smelt by a test panel.
An intensive typical smell of bad breath had formed. Non-inoculated controls only have a weak to moderate smell of bad breath.
Triclosan® in a concentration of 0.05% was added as control for the tests.
The minimum effective concentrations of various compounds of the Formula 1 or of the Formula 1A at which no smell could be detected are shown hereinafter: […]

Candida albicans = test: Effect against germs not connected with bad breath; conditions: 1,000 ppm
Aspergillus niger = test: Effect against germs not connected with bad breath; conditions: 1,000 ppm
Escherichia coli = test: Effect against germs not connected with bad breath; conditions: 1,000 ppm
Fusobacterium nucleatum = test: Minimal inhibiting concentration, series dilution test
Procedure: (§1) The minimal inhibiting concentration (MIC) was determined by way of example for 2-(benzoylamino) benzoic acid (Compound 27) in a series dilution test against various germs found in the mouth.

Prevotella intermedia = test: as above
Procedure: as §1

Staphylococcus aureus = test: as above; conditions: bactericide
Procedure: as §1

Veillonella parvula = test: as above; conditions: bactericide
Procedure: as §1

[1] = medium inoculated with fresh morning saliva, incubated a few days at 37° C., test panel

In the case of `O=C(/C=C/c1ccc(O)c(O)c1)Nc1ccccc1C(=O)O` [Compound 2, 2-{[(2E)-3-(3,4-dihydroxyphenyl)prop-2-enoyl]amino}benzoic acid], the “minimum effective concentration at which no smell could be detected” value (fresh morning saliva; [1]) is reported as 0.005%.

With `O=C(/C=C/c1ccc(O)c(O)c1)Nc1ccc(O)cc1C(=O)O` [Compound 3, 5-hydroxy-2-{[(2E)-3-(3,4-dihydroxyphenyl)prop-2-enoyl]amino}benzoic acid] the “minimum effective concentration at which no smell could be detected” value (fresh morning saliva; [1]) was 0.0025%.

`COc1cc(/C=C/C(=O)Nc2ccc(O)cc2C(=O)O)ccc1O` [Compound 4, 5-hydroxy-2-{[(2E)-3-(4-hydroxy-3-methoxyphenyl)prop-2-enoyl]amino}benzoic acid] was tested, and the “minimum effective concentration at which no smell could be detected” value (fresh morning saliva; [1]) was 0.01% and the “minimum effective concentration at which no smell could be detected” value (fresh morning saliva; same value given in ppm) was “(=100 ppm)”.

In the case of `O=C(/C=C/c1ccc(O)cc1)Nc1ccc(O)cc1C(=O)O` [Compound 7, 5-hydroxy-2-{[(2E)-3-(4-hydroxyphenyl)prop-2-enoyl]amino}benzoic acid], the “minimum effective concentration at which no smell could be detected” value (fresh morning saliva; [1]) is reported as 0.005% and the “minimum effective concentration at which no smell could be detected” value (fresh morning saliva; same value given in ppm) is reported as “(=50 ppm)”.

In the case of `O=C(CCc1ccc(O)cc1)Nc1ccccc1C(=O)O` [Compound 8, 2-{[3-(4-hydroxyphenyl)propanoyl]amino}benzoic acid], the “minimum effective concentration at which no smell could be detected” value (fresh morning saliva; [1]) is reported as 0.005%.

`COc1cc(/C=C/C(=O)Nc2ccccc2C(=O)O)ccc1O` [Compound 9, 2-{[(2E)-3-(4-hydroxy-3-methoxyphenyl)prop-2-enoyl]amino}benzoic acid] was tested, and the “minimum effective concentration at which no smell could be detected” value (fresh morning saliva; [1]) was 0.005%.

For `O=C(/C=C/c1ccc(O)cc1)Nc1ccccc1C(=O)O` [Compound 10, 2-{[(2E)-3-(4-hydroxyphenyl)prop-2-enoyl]amino}benzoic acid], the “minimum effective concentration at which no smell could be detected” value (fresh morning saliva; [1]) was 0.0025%, the “minimum effective concentration at which no smell could be detected” value (fresh morning saliva; same value given in ppm) was “(=25 ppm)” and the “effect against the germ” value (Candida albicans) was “did not have any effect”. The “effect against the germ” value (Aspergillus niger) was “did not have any effect” and the “effect against the germ” value (Escherichia coli) was “did not have any effect”.

With `O=C(/C=C/c1ccccc1)Nc1ccc(O)cc1C(=O)O` [Compound 12, 5-Hydroxy-2-{[(2E)-3-phenylprop-2-enoyl]amino}benzoic acid] the “minimum effective concentration at which no smell could be detected” value (fresh morning saliva; [1]) was 0.0025%.

With `COc1ccc(/C=C/C(=O)Nc2ccc(O)cc2C(=O)O)cc1OC` [Compound 13, 5-Hydroxy-2-{[(2E)-3-(3,4-dimethoxyphenyl)prop-2-enoyl]amino}benzoic acid] the “minimum effective concentration at which no smell could be detected” value (fresh morning saliva; [1]) was 0.01%.

`O=C(Nc1ccccc1C(=O)O)c1ccc(O)c(O)c1` [Compound 20, 2-[(3,4-dihydroxybenzoyl)amino]benzoic acid] was tested, and the “minimum effective concentration at which no smell could be detected” value (fresh morning saliva; [1]) was 0.005%.

With `COc1ccc(C(=O)Nc2ccccc2C(=O)O)cc1O` [Compound 23, 2-[(3-hydroxy-4-methoxybenzoyl)amino]benzoic acid] the “minimum effective concentration at which no smell could be detected” value (fresh morning saliva; [1]) was 0.0025%.

With `O=C(Nc1ccccc1C(=O)O)c1ccc(O)cc1` [Compound 24, 2-[(4-hydroxybenzoyl)amino]benzoic acid] the “minimum effective concentration at which no smell could be detected” value (fresh morning saliva; [1]) was 0.001%.

With `COc1cc(C(=O)Nc2ccccc2C(=O)O)ccc1O` [Compound 25, 2-[(4-hydroxy-3-methoxybenzoyl)amino]benzoic acid] the “minimum effective concentration at which no smell could be detected” value (fresh morning saliva; [1]) was 0.001%.

For `O=C(Nc1ccccc1C(=O)O)c1ccc(O)cc1O` [Compound 26, 2-[(2,4-dihydroxybenzoyl)amino]benzoic acid], the “minimum effective concentration at which no smell could be detected” value (fresh morning saliva; [1]) was 0.0025%.

With `O=C(Nc1ccccc1C(=O)O)c1ccccc1` [Compound 27, 2-(benzoylamino)-benzoic acid] the smell after incubation (fresh morning saliva; 0.001 wt. %) was “a non unpleasant smell could be detected, which did not bear any resemblance to bad breath”, the smell after incubation (fresh morning saliva; 0.0025 wt. %) was “no smell” and the “minimum effective concentration at which no smell could be detected” value (fresh morning saliva; [1]) was 0.0025%. For the same compound, the MIC (Fusobacterium nucleatum; bactericide) was 1000 µg/mL (≈ 4150 µM), the MIC (Fusobacterium nucleatum; bacteriostatic) was 500 µg/mL (≈ 2070 µM) and the MIC (Prevotella intermedia; bactericide) was 1000 µg/mL (≈ 4150 µM). For the same compound, the MIC (Prevotella intermedia; bacteriostatic) was 500 µg/mL (≈ 2070 µM), the MIC (Staphylococcus aureus) was 500 µg/mL (≈ 2070 µM) and the MIC (Veillonella parvula) was 250 µg/mL (≈ 1040 µM).

In the case of `O=C(Nc1ccccc1C(=O)O)c1cccc(O)c1` [Compound 28, 2-[(3-hydroxybenozyl)amino]benzoic acid], the “minimum effective concentration at which no smell could be detected” value (fresh morning saliva; [1]) is reported as 0.0005% and the “minimum effective concentration at which no smell could be detected” value (fresh morning saliva; same value given in ppm) is reported as “(=5 ppm)”.

For `O=C(Nc1ccccc1C(=O)O)c1ccccc1O` [Compound 29, 2-[(2-hydroxybenzoyl)amino]benzoic acid], the “minimum effective concentration at which no smell could be detected” value (fresh morning saliva; [1]) was 0.0025%.

In the case of `O=C(Nc1cc(O)ccc1C(=O)O)c1ccc(O)cc1` [Compound 75, 4-hydroxy-2-[(4-hydroxybenzoyl]amino}benzoic acid], the “minimum effective concentration at which no smell could be detected” value (fresh morning saliva; [1]) is reported as 0.01%.

For `O=C(Nc1ccccc1)c1ccccc1O` [Compound 100, Salicylanilide], the “minimum effective concentration at which no smell could be detected” value (fresh morning saliva; [1]) was 0.0025%.

With `COc1ccc(/C=C/C(=O)Nc2ccccc2C(=O)O)cc1` [Compound 101, 2-{[(2E)-3-(4-methoxyphenyl)prop-2-enoyl]amino}benzoic acid] the “minimum effective concentration at which no smell could be detected” value (fresh morning saliva; [1]) was 0.0025%.

With `O=C(/C=C/c1ccccc1)Nc1ccccc1C(=O)O` [Compound 102, 2-{[(2E)-3-phenylprop-2-enoyl]amino}benzoic acid] the “minimum effective concentration at which no smell could be detected” value (fresh morning saliva; [1]) was 0.001% and the “minimum effective concentration at which no smell could be detected” value (fresh morning saliva; same value given in ppm) was “(=10 ppm)”.

In the case of `Oc1cc(Cl)ccc1Oc1ccc(Cl)cc1Cl` [Triclosan, reference compound], the smell after incubation (fresh morning saliva; 0.05%, control) is reported as “the same smell as the non-inoculated flasks”.

`C=CCc1ccc(O)c(OC)c1` [eugenol, reference compound] was tested, and the “formation of bad breath / smell after incubation” value (fresh morning saliva) was “suppressed the formation of bad breath”.

For `Cc1ccc(C(C)C)c(O)c1` [thymol, reference compound], the “formation of bad breath / smell after incubation” value (fresh morning saliva) was “suppressed the formation of bad breath”.
